Laboratory results: article PMC11678766, “Identification of Novel Inhibitors of Starch Excess 4 (SEX4)” (Life, 2024)

Legend:
Type in all cases: biochemical
[1] = target: T1, LSF2 (Arabidopsis thaliana, UniProt Q9SRK5); experiment: Phosphatase assay against pNPP, LSF2
T1 construct: gift from Dr. Gentry's group, University of Kentucky College of Medicine
Experimental: (§1) The Arabidopsis thaliana SEX4 lacking the first 89 amino acids (Δ89-SEX4) and LSF2 proteins were kindly provided by Dr. Gentry’s group at the University of Kentucky College of Medicine (Lexington, KY, USA). para-nitrophenyl phosphate disodium salt hexahydrate (pNPP), Malachite green oxalate salt, ammonium molybdate tetrahydrate, and amylopectin from potato starch were purchased from Sigma-Aldrich. Absorbance was measured on a Beckman Coulter (Brea, CA, USA) DU 700 Series UV/Vis Spectrophotometer.
(§2) The phosphatase activity of SEX4 or LSF2 against pNPP in the presence or absence of an inhibitor was measured in this assay. The reaction (20 μL of total volume) of A. thaliana SEX4 or LSF2 was performed in the reaction mixture containing 1~2 μg SEX4 or LSF2, 1X assay buffer pH 5.5 (20 mM sodium acetate, 10 mM bis-Tris, 10 mM Tris, pH with HCl), 5 mM Dithiothreitol (DTT), and 50 mM pNPP (Sigma-Aldrich, Wien, Austria). It was incubated at 37 °C for 10 min with or without an inhibitor. The reaction was terminated by adding 80 μL of 0.25 N NaOH, and absorbance was measured at 410 nm.
(§3) The steady-state kinetic parameters were determined by varying substrate concentrations (pNPP 0.5–50 mM; amylopectin 5–45 μg) with or without an inhibitor. The data were fitted by nonlinear regression to the Michaelis–Menten equation using GraphPad PRISM 9.0 software to derive KM and kcat values. […] Inhibition constants (Ki) and inhibition types were determined by varying substrate concentrations in the absence of an inhibitor and in the presence of an inhibitor at the IC50 concentration.
(§4) The process of finding an inhibitor proceeded as follows (Figure 1). […] Then, reproduction experiments were performed with these compounds to select candidate substances. […] In order to assess any difference in selectivity between SEX4 and LSF2 for the selected candidates, the IC50 values of LSF2 were obtained through the pNPP and amylopectin assays and compared with those of SEX4.

[2] = target: T2, SEX4 (Arabidopsis thaliana, UniProt Q9FEB5); experiment: Phosphatase assay against pNPP, SEX4; details: for Inhibition model, pNPP assay, SEX4: determined by steady-state kinetic measurements
T2 construct: gift from Dr. Gentry's group, University of Kentucky College of Medicine
T2 sequence (Q9FEB5 90-379 limits assumed): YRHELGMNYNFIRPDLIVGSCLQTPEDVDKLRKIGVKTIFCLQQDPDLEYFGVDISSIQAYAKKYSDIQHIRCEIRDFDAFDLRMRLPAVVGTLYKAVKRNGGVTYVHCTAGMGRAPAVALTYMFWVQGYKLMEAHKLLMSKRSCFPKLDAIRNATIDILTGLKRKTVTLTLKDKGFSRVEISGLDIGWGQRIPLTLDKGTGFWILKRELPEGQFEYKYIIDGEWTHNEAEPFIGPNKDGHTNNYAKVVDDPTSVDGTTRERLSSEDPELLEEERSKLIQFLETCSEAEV
Experimental: as §1, §2, §3, §4
(§5) The IC50 values were calculated directly from regression curves using GraphPad PRISM software. The IC50 graph was fitted to the Logistic Equation.

[3] = target: T2, SEX4; experiment: Phosphatase assay against amylopectin, SEX4; details: for Inhibition model, amylopectin assay, SEX4: determined by steady-state kinetic measurements; for Selectivity between SEX4 and LSF2: comparison of IC50 values for SEX4 and LSF2
Experimental: as §1
(§6) The phosphatase activity of SEX4 or LSF2 toward amylopectin in the absence or presence of an inhibitor was measured in a reaction mixture with 2 μg SEX4 or LSF2 at 37 °C in 20 μL volume. The reaction mixture contained 100 mM sodium acetate, 50 mM bis-Tris, 50 mM Tris (pH 6.5), 10 mM DTT, and 45 μg amylopectin with or without an inhibitor. […] The release of free inorganic phosphate was determined by measuring the absorbance at 620 nm and the K2HPO4 standard curve.
as §3, §4, §5

[4] = target: T1, LSF2; experiment: Phosphatase assay against amylopectin, LSF2
Experimental: as §1, §6, §3, §4

[5] = average ± standard error of three measurements, read-out: IC50, pNPP assay, LSF2
[6] = 50 mM pNPP, inhibitor 0–0.2 mM, average ± standard error of three measurements, read-out: IC50, pNPP assay, SEX4
[7] = pNPP 0.5–50 mM, inhibitor at IC50 concentration, average ± standard error of three measurements, read-out: Ki, pNPP assay, SEX4
[8] = 45 μg amylopectin, inhibitor 0–0.2 mM, average ± standard error of three measurements, read-out: IC50, amylopectin assay, SEX4
[9] = amylopectin 5–45 μg, inhibitor at IC50 concentration, average ± standard error of three measurements, read-out: Ki, amylopectin assay, SEX4
[10] = not determined with the maximum concentration of candidate compounds, read-out: IC50, amylopectin assay, LSF2

T1 sequence (Q9SRK5 62-282): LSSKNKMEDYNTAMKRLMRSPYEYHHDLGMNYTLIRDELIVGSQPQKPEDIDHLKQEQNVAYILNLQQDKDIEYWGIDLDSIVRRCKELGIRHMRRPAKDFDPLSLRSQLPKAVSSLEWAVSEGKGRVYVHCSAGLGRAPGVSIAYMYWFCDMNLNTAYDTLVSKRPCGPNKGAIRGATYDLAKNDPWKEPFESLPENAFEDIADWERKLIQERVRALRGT

SMILES	IC50 [1, 5]	IC50 [2, 6]	Inhibition model, pNPP assay, SEX4 [2]	Ki [2, 7]	IC50 [3, 8]	Ki [3, 9]	Inhibition model, amylopectin assay, SEX4 [3]	IC50 [4, 10]	IC50 [2]	IC50 for SEX4 compared with that of LSF2, pNPP assay ([2]; SEX4 vs LSF2)	IC50 ([2]; read-out: IC50, pNPP assay, SEX4)	Ki ([2]; read-out: Ki, pNPP assay, SEX4)	IC50 ([3]; read-out: IC50, amylopectin assay, SEX4)	Ki ([3]; read-out: Ki, amylopectin assay, SEX4)	Selectivity between SEX4 and LSF2 [3]	IC50 [1]	IC50 [4]	Ki [2]	IC50 [3]	Ki [3]
Cc1c(O)nc2[nH]c(=O)sc2c1C [Compound H03, Thiazolo[4,5-b]pyridin-2(3H)-one, 5-hydroxy-6,7-dimethyl]	49.58 ± 0.047 µM	39.58 ± 0.016 µM	Uncompetitive	42.34 ± 0.037 µM	13.05 ± 0.024 µM	29.84 ± 0.025 µM	Competitive													
CC(C)=CCc1c(-c2ccc(O)cc2O)oc2c(C3C=C(C)CC(C(=O)c4ccc(O)cc4O)C3c3ccc(O)cc3O)c(O)cc(O)c2c1=O (stereo not shown) [Compound H08, Moracenin B]	22.92 ± 0.025 µM	18.69 ± 0.026 µM	Uncompetitive	20.84 ± 0.023 µM	16.49 ± 0.051 µM	31.12 ± 0.027 µM	Uncompetitive	> 50 µM												
CCCCCC/C=C\CCCCCCCc1cccc(O)c1C(=O)O [Compound F05, Ginkgolic acid]	21.26 ± 0.008 µM		Uncompetitive	6.87 ± 0.007 µM	21.1 ± 0.021 µM	20.81 ± 0.021 µM	Uncompetitive	> 50 µM	5.18 ± 0.014 µM	approximately four times lower										
O=C(OCC1OC(OC(=O)c2cc(O)c(O)c(O)c2)C(OC(=O)c2cc(O)c(O)c(O)c2)C(OC(=O)c2cc(O)c(O)c(O)c2)C1OC(=O)c1cc(O)c(O)c(O)c1)c1cc(O)c(O)c(O)c1 [Compound G07, Penta-O-gallolyl-β-D-glucose]	13.39 ± 0.036 µM							> 50 µM			30.91 ± 0.021 µM	37.31 ± 0.026 µM	38.61 ± 0.022 µM	46.4 ± 0.032 µM						
O=C(O)c1cc(O)c2c(c1)[C@@H]([C@@H]1c3cc(C(=O)O)cc(O)c3C(=O)c3c(OC4OC(CO)C(O)C(O)C4O)cccc31)c1cccc(OC3OC(CO)C(O)C(O)C3O)c1C2=O (stereo partly shown) [Compound G11, Sennoside]	23.03 ± 0.029 µM	25.75 ± 0.017 µM	Uncompetitive	33.87 ± 0.019 µM	9.72 ± 0.008 µM	7.81 ± 0.005 µM	Competitive	> 50 µM							selective for SEX4					
CCCc1c(O)nc2[nH]c(=O)sc2c1C [Compound D04, Thiazolo[4,5-b]pyridin-2(3H)-one, 5-hydroxy-7-methyl-6-propyl]	44.82 ± 0.022 µM	21.6 ± 0.008 µM	Uncompetitive	25.41 ± 0.012 µM	57.33 ± 0.34 µM	28.31 ± 0.014 µM	Competitive													
O=C1C=CC(=O)c2c(O)ccc(O)c21 [Compound F09, Naphthazarin]			Mixed-model				Uncompetitive		15.83 ± 0.018 µM						selective for SEX4	23.97 ± 0.028 µM	> 50 µM	39.81 ± 0.026 µM	7.49 ± 0.016 µM	16.42 ± 0.012 µM
